Experimental data reported in US10238747B2 (priority 2010, dated 2019).
Values joined by “and” are separate entries in the source; they are usually repeats but may differ in a detail not shown here. Identical values can stand only once.

Experiments:
[1] = 2-8° C.
CD4 = CD4 (Homo sapiens, UniProt P01730); settings: T cell co-stimulator molecule; cited from earlier work
BALB/c and C57BL6 mice = settings: mouse, in vivo
Dendritic Cells = assay type: cell-based, Balb/c mice
CIA model of RA = settings: mouse, in vivo; cited from earlier work

(amino)-DGQEEKAGVVSTGLIGGG-(amide) (H-DGQEEKAGVVSTGLIGGG-NH2) [CEL-1000]
stability of formulation (time extremely stable) [1]: over 2 years
binding to CD4 (CD4): shown to bind to CD4

DLLKNGERIEKVEGGGGLFGAIAGFIEGG [J-HA2 core 1]
primary response: antibody production (day 24 or 38) or cytokine responses (day 3, 10 and 24) (BALB/c and C57BL6 mice): very little response

DLLKNGERIEKVEGGGLKSTQNAIDEITNKVN [J-HA2 core 2]
primary response: antibody production (day 24 or 38) or cytokine responses (day 3, 10 and 24) (BALB/c and C57BL6 mice): very little response

DLLKNGERIEKVEGGGNDATYQRTRALVRTG [J-NP]
serum IFN-y, secondary response (FIG. 2) (BALB/c and C57BL6 mice): sustained levels
serum IFN-γ response, normalized to adjuvant control (FIG. 1) (BALB/c and C57BL6 mice): higher amounts
serum IL-10, secondary response (FIG. 2) (BALB/c and C57BL6 mice): sustained levels
serum IL-12 p40p70, secondary response (FIG. 2) (BALB/c and C57BL6 mice): sustained levels
serum IL-12p40 response, normalized to adjuvant control (FIG. 1) (BALB/c and C57BL6 mice): higher for C57BL6 mice
serum IL-12p70, secondary response (FIG. 2) (BALB/c and C57BL6 mice): sustained levels
serum MCP-1 response, normalized to adjuvant control (FIG. 1) (BALB/c and C57BL6 mice): higher amounts

DLLKNGERIEKVEGGGSLLTEVETPIRNEWGCRCNDSSD [J-M2e]
serum IFN-y, secondary response (FIG. 2) (BALB/c and C57BL6 mice): increase
serum IFN-γ response, normalized to adjuvant control (FIG. 1) (BALB/c and C57BL6 mice): higher amounts
serum IL-10, secondary response (FIG. 2) (BALB/c and C57BL6 mice): increase
serum IL-12 p40p70, secondary response (FIG. 2) (BALB/c and C57BL6 mice): increase
serum IL-12p40 response, normalized to adjuvant control (FIG. 1) (BALB/c and C57BL6 mice): higher for C57BL6 mice
serum IL-12p70, secondary response (FIG. 2) (BALB/c and C57BL6 mice): increase
serum MCP-1 response, normalized to adjuvant control (FIG. 1) (BALB/c and C57BL6 mice): higher amounts

DLLKNGERIEKVEGGGTGGKPGIAGFKGEQGPKGEP [CEL-2000]
IL-12p70 Conc., R&D Systems (IL-12p70), Avg (Dendritic Cells): 67.9 pg/mL and 35.4 pg/mL and 58.2 pg/mL
disease suppression (CIA model of RA): suppress disease over a 90 day period
efficacy compared with Enbrel (CIA model of RA): more effective than Enbrel
safety and tolerability (CIA model of RA): safe and well-tolerated
serum IL-1 change (CIA model of RA): reduced
serum IL-10 change (CIA model of RA): increased
serum IL-12p40 change (CIA model of RA): decrease
serum IL-12p70 change (CIA model of RA): increased
serum MCP-1 change (CIA model of RA): reduced
serum TNF-α change (CIA model of RA): reduced

DLLKNGERIEKVEGGGYSVHQRIDVKDTKEALEKIEEEQNKSKKKA [JH]
TNF-a Conc., R&D Systems TNF-a, Avg (Dendritic Cells): 905.7 pg/mL and 685.0 pg/mL and 830.9 pg/mL
TNF-a Conc., RayBio TNF-a, Avg (Dendritic Cells): 29.6 pg/mL

lipopolysaccharide [LPS]
IL-12p70 Conc., R&D Systems (IL-12p70), Avg (Dendritic Cells): 57.0 pg/mL and 78.5 pg/mL and 62.5 pg/mL
TNF-a Conc., R&D Systems TNF-a, Avg (Dendritic Cells): 5229.9 pg/mL and 3313.2 pg/mL and 3083.0 pg/mL
TNF-a Conc., RayBio TNF-a, Avg (Dendritic Cells): 3206.0 pg/mL and 2142.3 pg/mL and 2028.6 pg/mL
